Several values for one entry are separate records, joined by “and”; a condition that tells them apart may be missing. Equal values may be shown once. Read-outs that look alike come from different tables or passages of the source.
Legend:
[1] = system: Aβ40 secretion; assay: Aβ40 secretion by H4 cells expressing APP695, sandwich ELISA; assay type: cell-based, human; conditions: medium collected at 24 or 48 hours, several numbers = independent sets of assays; for IC50: about 1 μM to about 100 μM; for inhibition at 100 µM / % Inhibition of Aβ40 Secretion @ 100 μM: test compound 100 μM vs DMSO control
Method: (§1) The present invention provides compositions and methods for lowering Aβ42 levels. To test whether compounds and compositions are capable of modulating Aβ levels in cultured cells, sandwich enzyme-linked immunosorbent assays (ELISAs) are employed to measure secreted Aβ (Aβ42 and/or Aβ40 levels). In this example, H4 cells expressing wide type APP695 are seeded at 200,000 cells per well in 6 well plates, and incubated at 37° C. with 5% CO2 overnight. Cells are treated with 1.5 ml medium containing vehicle (DMSO) or a test compound at 1.25 μM, 2.5 μM, 5.0 μM and 10.0 μM (as well as other concentration if desirable) for 24 hours or 48 hours. The supernatant from treated cells is collected into eppendorf tubes and frozen at −80° C. for future analysis.
(§2) The amyloid peptide standard is reconstituted and frozen samples are thawed. The samples and standards are diluted with appropriate diluents and the plate is washed 4 times with Working Wash Buffer and patted dry on a paper towel. 100 μL per well of peptide standards, controls, and dilutions of samples to be analyzed is added. The plate is incubated for 2 hours while shaking on an orbital plate shaker at RT. The plate is then washed 4 times with Working Wash Buffer and patted dry on a paper towel. Detection Antibody Solution is poured into a reservoir and 100 μL/well of Detection Antibody Solution is immediately added to the plate. The plate is incubated at RT for 2 hours while shaking and then washed four times with Working Wash Buffer and patted dry on a paper towel. Secondary Antibody Solution is then poured into a reservoir and 100 μL/well of Secondary Antibody Solution is immediately added to the plate. The plate is incubated at RT for 2 hours with shaking, washed 5 times with Working Wash Buffer, and patted dry on a paper towel.
(§3) 100 μL of stabilized chromogen is added to each well and the liquid in the wells begins to turn blue. The plate is incubated for 30 minutes at room temperature and in the dark. 100 μL of stop solution is added to each well and the plate is tapped gently to mix resulting in a change of solution color from blue to yellow. The absorbance of each well is read at 450 nm having blanked the plate reader against a chromogen blank composed of 100 μL each of stabilized chromogen and stop solution. The plate is read within 2 hours of adding the stop solution. The absorbance of the standards is plotted against the standard concentration and the concentrations of unknown samples and controls are calculated.
(§4) The present invention provides compositions and methods for lowering Aβ42 levels. To test whether compounds and compositions are capable of modulating Aβ levels, sandwich enzyme-linked immunosorbent assays (ELISAs) is employed to measure secreted Aβ42 and/or Aβ40 levels. In this example, H4 cells expressing wide type APP695 are seeded at 200,000 cells per well in 6 well plates, and incubated at 37° C. with 5% CO2 overnight. Cells are treated with 1.5 mL medium containing vehicle (DMSO) or a test compound at 1.25 μM, 2.5 μM, 5.0 μM and 10.0 μM concentration for 24 hours or 48 hours. The supernatant from treated cells is collected into eppendorf tubes and frozen at −80° C. for future analysis.
(§5) 130 μL per well of samples, standards, and blanks is added to a 96-well polypropylene plate. […] of samples, standards, and blanks from the polypropylene plate is added to the antibody-coated plates. The strip-holder with the appropriate number of strips is applied to the antibody-coated plates and the strips are covered with an adhesive sealer. The plate is then incubated 3 hours at room temperature while shaking on an orbital plate shaker.
(§6) The first antibody solution is prepared with Conjugate Diluent 1 at 1:100 ratio. Each well of the antibody-coated plates is washed 5 times with 400 μL washing solution and 100 μL of the prepared first antibody solution is added to each well. […]

[2] = system: Aβ42 secretion; assay: Aβ42 secretion by H4 cells expressing APP695, sandwich ELISA; assay type: cell-based, human; conditions: medium collected at 24 or 48 hours, several numbers = independent sets of assays; for IC50: about 1 μM to about 100 μM; for inhibition at 100 µM / % Inhibition of Aβ42 Secretion @ 100 μM: test compound 100 μM vs DMSO control
Method: as §1, §2, §3, §4, §5, §6

[3] = system: Aβ42; conditions: CHO cells; cited from earlier work
[4] = system: Aβ42; conditions: transgenic mouse model; cited from earlier work
[5] = system: COX; conditions: cited from earlier work

IC50 ([1]; Homo sapiens)	IC50 ([2]; Homo sapiens)	IC50 [1]	IC50 [2]	Compound	inhibition at 100 µM ([1]; Homo sapiens)	inhibition at 100 µM ([2]; Homo sapiens)	% Inhibition of Aβ40 Secretion @ 100 μM [1]	% Inhibition of Aβ42 Secretion @ 100 μM [2]	Aβ42 lowering [3]	Aβ42 lowering [4]	inhibition of COX activity [5]
100 µM	52 µM			O=C(O)CCc1cccc(-n2c(CCc3ccccc3)ccc2-c2ccccc2)c1 [Compound 24, 3-[3-(2-Phenethyl-5-phenyl-pyrrol-1-yl)-phenyl]-propionic acid]	52%	73%					
> 100 µM	> 100 µM			O=C(O)CCCc1ccc(-n2c(CCc3ccccc3)ccc2-c2ccccc2)cc1 [Compound 25, 4-[4-(2-Phenethyl-5-phenyl-pyrrol-1-yl)-phenyl]-butyric acid]	30%	40%					
42 µM	21 µM			Cc1c(-c2ccccc2)cc(-c2ccccc2)n1-c1cccc(OCC(=O)O)c1 [Compound 26, [3-(2-Methyl-3,5-diphenyl-pyrrol-1-yl)-phenoxy]-acetic acid]	94%	147%					
> 32 µM	80 µM			Cc1c(-c2ccccc2)cc(-c2ccccc2)n1-c1ccc(OCCC(=O)O)cc1 [Compound 28, 3-[4-(2-Methyl-3,5-diphenyl-pyrrol-1-yl)-phenoxy]-propionic acid]	32%	55%					
33 µM	14 µM			O=C(O)CCCc1ccc(-n2c(-c3ccccc3)cc(-c3ccccc3)c2C2CCCCC2)cc1 [Compound 29, 4-[4-(2-Cyclohexyl-3,5-diphenyl-pyrrol-1-yl)-phenyl]-butyric acid]	103%	102%					
22 µM	15 µM			CC(C)c1c(-c2ccccc2)cc(-c2ccccc2)n1-c1cccc(C(=O)O)c1 [Compound 30, 3-(2-Isopropyl-3,5-diphenyl-pyrrol-1-yl)-benzoic acid]	101%	99%					
23 µM	21 µM			CC(C)c1c(-c2ccccc2)cc(-c2ccccc2)n1-c1cccc(CCC(=O)O)c1 [Compound 31, 3-[3-(2-Isopropyl-3,5-diphenyl-pyrrol-1-yl)-phenyl]-propionic acid]	106%	95%					
41 µM	22 µM			CC(C)c1c(-c2ccccc2)cc(-c2ccccc2)n1-c1ccc(CCCC(=O)O)cc1 [Compound 32, 4-[4-(2-Isopropyl-3,5-diphenyl-pyrrol-1-yl)-phenyl]-butyric acid]	103%	98%					
74 µM	21 µM	79 µM	24 µM	O=C(O)c1cccc(-n2c(-c3ccccc3)cc(-c3ccccc3)c2C2CC2)c1 [Compound 33, 3-(2-Cyclopropyl-3,5-diphenyl-pyrrol-1-yl)-benzoic acid]	73%	89%	73, 73%	86%			
48 µM	30 µM			O=C(O)CCc1cccc(-n2c(-c3ccccc3)cc(-c3ccccc3)c2C2CC2)c1 [Compound 34, 3-[3-(2-Cyclopropyl-3,5-diphenyl-pyrrol-1-yl)-phenyl]-propionic acid]	100%	95%					
79 µM	29 µM	68 µM	24 µM	O=C(O)CCCc1ccc(-n2c(-c3ccccc3)cc(-c3ccccc3)c2C2CC2)cc1 [Compound 35, 4-[4-(2-Cyclopropyl-3,5-diphenyl-pyrrol-1-yl)-phenyl]-butyric acid]		83%	73% and 96%	93%			
29 µM	8 µM	19 µM	7 µM	CC(C)(C)Cc1c(-c2ccccc2)cc(-c2ccccc2)n1-c1cccc(C(=O)O)c1 [Compound 36, 3-[2-(2,2-Dimethyl-propyl)-3,5-diphenyl-pyrrol-1-yl]-benzoic acid]	103%	99%	96%	101%			
30 µM	9 µM	32 µM	7 µM	CC(C)(C)Cc1c(-c2ccccc2)cc(-c2ccccc2)n1-c1cccc(CCC(=O)O)c1 [Compound 37, 3-{3-[2-(2,2-Dimethyl-propyl)-3,5-diphenyl-pyrrol-1-yl]-phenyl}-propionic acid]	98%	100%	104%	99%			
63 µM	10 µM	37 µM	7 µM	CC(C)(C)Cc1c(-c2ccccc2)cc(-c2ccccc2)n1-c1ccc(CCCC(=O)O)cc1 [Compound 38, 4-{4-[2-(2,2-Dimethyl-propyl)-3,5-diphenyl-pyrrol-1-yl]-phenyl}-butyric acid]	88%	94%	104%	101%			
54 µM	50 µM			Cc1c(-c2ccccc2)cc(-c2ccccc2)n1-c1ccc(C(=O)O)cc1 [Compound 39, 4-(2-Methyl-3,5-diphenyl-pyrrol-1-yl)-benzoic acid]	92%	86%					
				C[C@@H](C(=O)O)c1ccc(-c2ccccc2)c(F)c1 [R-Flurbiprofen]					lower Aβ42	lower Aβ42	negligibly inhibits COX activity
